The source of these data is patent US20240002395A1, “COMPOUNDS AND THEIR USE FOR TREATING NEUROPATHIC PAIN” (The Johns Hopkins University, priority 2020, published 2024).

The structures appear in SMILES notation.

A short description of series [1]: Metabolic stability in human liver microsomes. In kind it is in vitro ADME. The procedure:
[The procedure below names another species; the source lists this species under the same test.] (§1) The metabolic stability was evaluated using mouse liver microsomes. For the cytochrome P450 (CYP)-mediated metabolism, the reaction was carried out with 100 mM potassium phosphate buffer, pH 7.4, in the presence of NADPH regenerating system (1.3 mM NADPH, 3.3 mM glucose 6-phosphate, 3.3 mM MgCl2, 0.4 U/mL glucose-6-phosphate dehydrogenase, 50 μM sodium citrate). Reactions, in triplicate, were initiated by addition of the liver microsomes to the incubation mixture (compound final concentration was 5 μM; 0.5 mg/mL microsomes). After 60 min of incubation, aliquots of the mixture were removed and the reaction quenched by addition of three times the volume of ice-cold acetonitrile spiked with the internal standard. Compound disappearance was monitored over time using a liquid chromatography and tandem mass spectrometry (LC/MS/MS) method.
For orientation: Liver microsomes are vesicles of endoplasmic reticulum, rich in cytochrome P450 enzymes.

The next series has as its target T1, human MrgprX1 (Homo sapiens, UniProt Q96LB2).
T1 construct: expressed in transfected cells
Kind of series: MrgprX1 positive allosteric modulator (PAM) calcium FLIPR assay in HEK293 cells. In kind it is cell-based. Particulars: PAM activity in presence of EC20 concentration of BAM8-22; HEK293 cells stably transfected with human MrgprX1. The procedure, abridged:
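Fluo-4-loaded HEK293 cells stably expressing human MrgprX1 preincubated 2.5 min with compound, then challenged with BAM8-22 at its EC20; calcium read on FLIPR for 2 min. EC50 is the half-maximal response, normalised between BAM8-22 EC20 (minimum) and 250 nM BAM8-22 (maximum).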

Series [2] in a line: Metabolic stability in mouse liver microsomes. Particulars: mouse liver microsomes 0.5 mg/mL, NADPH, compound 5 μM, 60 min. Format: in vitro ADME. The procedure: as §1
In series [3] the test system is MrgprX1 mice after sciatic CCI. Kind of series: Chronic constrictive injury (CCI) model, heat hypersensitivity (Hargreaves test). Particulars: 100 mg/kg oral gavage. Format: in vivo. On the procedure: Compound 7a was examined for its ability to attenuate heat hypersensitivity in MrgprX1 mice after receiving sciatic CCI, according to the previously described methods (Proc Natl Acad Sci USA. 2017 Mar. 7; 114(10):E1996-E2005). Paw withdrawal latency (PWL) to noxious heat stimuli was measured with the Hargreaves test. The results are summarized in FIG. 2 (** P<0.01, *** P<0.001 vs. vehicle; ##P<0.01, ###P<0.001, ####P<0.0001 vs. pre-drug. Two-way mixed-model ANOVA with Bonferroni post hoc test. Data are expressed as mean+SD).

The nature of series [4]: In vivo oral pharmacokinetics in mice. To be noted: 100 mg/kg oral; for Tmax: male, CD-1, mouse. On the procedure:
Male CD-1 mice between 25 and 30 g were obtained from Harlan, and maintained on a 12-h light-dark cycle with ad libitum access to food and water. Three animals were used per time-point for each treatment group. Compound 7a was dissolved in 5% dimethyl acetamide, 10% Tween80, 10% Cremophor EL, 25% PEG400, and 50% water, and administered to male mice as a single oral dose by oral gavage of 100 mg/kg. The mice were sacrificed at various time points post-drug administration. Animals were euthanized with CO2, and blood samples were collected in heparinized microtubes by cardiac puncture. Brain and spinal cord tissues were dissected and immediately flash frozen (−80° C.). Blood samples were spun at 2,000×g for 15 min, plasma was removed and stored at −80° C. until LC-MS analysis. Prior to extraction, frozen samples were thawed on ice. The calibration curves were developed using plasma and brain from naïve animals as a matrix. Plasma samples (50 μL), were processed using a single liquid extraction method by addition of 300 μL of acetonitrile as with internal standard (losartan: 0.5 μM), followed by vortex mixing for 30 sec and then centrifugation at 10,000×g for 10 min at 4° C. Fifty microliter of the supernatant is diluted with 50 μL of water and transferred to 250 μL polypropylene autosampler vials sealed with a Teflon cap. For brain and spinal cord tissue analysis, samples were weighed in the range of (80-100 mg) to which 2-volumes of acetonitrile as with internal standard (losartan: 0.5 μM) was added and homogenized for extraction of the analyte. Samples were vortex mixed for 1 min and centrifuged as above. A 20 μL aliquot of supernatant was diluted with 20 μL of water and transferred to 250 μL polypropylene autosampler vials sealed with a Teflon cap. A volume of 3 μL was injected onto the ultra-performance liquid chromatography (UPLC) instrument for quantitative analysis by LC-MS/MS. Samples were analyzed on a Thermo Scientific Accela UPLC system coupled to Accela open autosampler at ambient temperature with an Agilent Eclipse Plus column (100×2.1 mm i.d.) packed with a 1.8 μm C18 stationary phase. The autosampler was temperature controlled and operated at 10° C. The mobile phase used for the chromatographic separation was composed of acetonitrile/water containing 0.1% formic acid and with a flow rate of 0.4 mL/min for 4.5 min using gradient elution. The column effluent was monitored using TSQ Vantage triple-quadrupole mass-spectrometric detector, equipped with an electrospray probe set in the positive ionization mode. Samples were introduced into the ionization source through a heated nebulized probe (350° C.).

The conditions of series [5]: intrathecal injection; cited from earlier work.

T1 sequence (Q96LB2 whole entry): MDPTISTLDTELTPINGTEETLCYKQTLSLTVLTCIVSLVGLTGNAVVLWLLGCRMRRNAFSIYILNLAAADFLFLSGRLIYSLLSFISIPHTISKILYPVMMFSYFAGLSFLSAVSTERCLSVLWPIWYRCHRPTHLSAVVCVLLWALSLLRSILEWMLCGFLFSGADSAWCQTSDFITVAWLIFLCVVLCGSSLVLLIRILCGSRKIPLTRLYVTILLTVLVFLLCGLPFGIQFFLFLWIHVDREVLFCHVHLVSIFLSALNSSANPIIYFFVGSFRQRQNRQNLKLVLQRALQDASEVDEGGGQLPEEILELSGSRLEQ

Turning to `CC(C)(C)c1sc2ncnc(Oc3ccccc3OC(F)(F)F)c2c1-c1ccc(Cl)c(Cl)c1` [Compound 7a, 6-tert-butyl-5-(3,4-dichlorophenyl)-4-(2-(trifluoromethoxy)phenoxy)thieno[2,3-d]pyrimidine], in series [1], the “% remaining after 1-h incubation, Human” value was over 95%. Further, at human MrgprX1, the EC50 (usually the concentration giving half of the maximal effect) came to 100 nM. The “% remaining after 1-h incubation, Mouse” value in series [2] was 25%. Moreover, the “ipsilateral paw withdrawal latency (PWL) to noxious heat” value in series [3] (1-2 hours after dosing, day 12 and day 26 post-CCI, vs pre-drug level) is “significantly increased from pre-drug level”. In addition, the “contralateral paw withdrawal latency (PWL) to noxious heat” value in series [3] (compared to pre-drug baseline or vehicle-treated group) is on record as “no significant changes”. For the same compound, in series [4] (Brain), the AUC0-last was determined as 2.37 ± 0.03 µM·h; the Cmax – broadly, the peak of the concentration-time curve – was determined as 0.82 ± 0.05 µM; the Tmax (commonly the time from dosing to the highest level) worked out at 1.67 ± 0.33 h. Moreover, in series [4] (Plasma), the peak concentration (Cmax) came to 39 ± 5.06 µM and the Tmax is 1.67 ± 0.33 h. In addition, in series [4] (Spinal cord), the Cmax came out at 4.6 ± 0.6 µM and the Tmax stood at 1.17 ± 0.44 h.
As to `CCOc1ccccc1NC(=O)c1ccccc1NS(=O)(=O)C1CC1` [ML382, 2-(cyclopropanesulfonamido)-N-(2-ethoxyphenyl)benzamide], in series [5], the “efficacy in preclinical models of pain” value is listed as “showed efficacy”.
